# Measured values from patent US5096907A, “Antibiotic LL-E19085” (American Cyanamid Company, priority 1991, dated 1992).
# Read-outs that look alike come from different tables or passages of the source.
# Columns and labels:
# Assay in all cases: In vitro antibacterial activity, agar dilution
# Type in all cases: cell-based
# [1] = test system: Clostridium differensis; conditions: ATCC17858, strain ATCC 17858, Mueller-Hinton agar, read-out: Minimal Inhibitory Concentration
# Protocol: (§1) The in vitro antibacterial effects of antibiotics LL-E19085α, LL-E19085β, LL-E19085γ, LL-E19085.zeta. and LL-E19085.eta. were determined by standard agar dilution methods against clinical isolates obtained from medical centers representing various geographical areas in the United States. The inoculum of each culture was approximately 1 to 5×10^4 colony forming units applied with a Steers multiple inocula replicator to plates containing the antibiotic in Mueller-Hinton agar. The agar was supplemented with about 5% sheep blood where required for the growth of the organism.
# [2] = test system: Enterobacter cloacae; conditions: strain VGH 84-37, Mueller-Hinton agar, read-out: Minimal Inhibitory Concentration
# Protocol: as §1
# [3] = test system: Enterococcus; conditions: read-out: Minimal Inhibitory Concentration
# Protocol: as §1
# [4] = test system: Klebsiella pneumoniae; conditions: strain AD, Mueller-Hinton agar, read-out: Minimal Inhibitory Concentration
# Protocol: as §1
# [5] = test system: Bacteroides fragilis; conditions: ATCC25285, strain ATCC 25285, Mueller-Hinton agar, read-out: Minimal Inhibitory Concentration
# Protocol: as §1
# [6] = test system: Bacteroides theta; conditions: read-out: Minimal Inhibitory Concentration
# Protocol: as §1
# [7] = test system: Clostridium perfringen; conditions: ATCC13124, strain ATCC 13124, Mueller-Hinton agar, read-out: Minimal Inhibitory Concentration
# Protocol: as §1
# [8] = test system: Streptococcus β-hemolyticus; conditions: Mueller-Hinton agar
# Protocol: as §1
# [9] = test system: erratia rubidea; conditions: strain UHL 86-4; Mueller-Hinton agar; read-out: Minimal Inhibitory Concentration
# Protocol: as §1
# [10] = test system: Bacteroides vulgaris; conditions: ATCC29327, strain ATCC 29327, Mueller-Hinton agar, read-out: Minimal Inhibitory Concentration
# Protocol: as §1
# [11] = test system: Pseudomonas aeruginosa; conditions: strain 12-4-4, Mueller-Hinton agar, read-out: Minimal Inhibitory Concentration
# Protocol: as §1
# [12] = test system: Serratia marcescens; conditions: strain K 84-14, Mueller-Hinton agar, read-out: Minimal Inhibitory Concentration
# Protocol: as §1
# [13] = test system: Staphylococcus saphrophiticus; conditions: strain VGH 84-50, Mueller-Hinton agar, read-out: Minimal Inhibitory Concentration
# Protocol: as §1
# [14] = test system: Escherichia coli; conditions: read-out: Minimal Inhibitory Concentration
# Protocol: as §1
# [15] = test system: Peptococcus magnus; conditions: Finegoldia magna, Mueller-Hinton agar, read-out: Minimal Inhibitory Concentration
# Protocol: as §1
# [16] = test system: Morganella morganii; conditions: strain VGH 84-11, Mueller-Hinton agar, read-out: Minimal Inhibitory Concentration
# Protocol: as §1
# [17] = test system: Proteus vulgaris; conditions: strain CMC 84-35, Mueller-Hinton agar, read-out: Minimal Inhibitory Concentration
# Protocol: as §1
# [18] = test system: Staphylococcus epidermidis; conditions: strain IO 83-58, Mueller-Hinton agar, read-out: Minimal Inhibitory Concentration
# Protocol: as §1
# [19] = test system: Citrobacter diversis; conditions: strain MOR 84-3, Mueller-Hinton agar, read-out: Minimal Inhibitory Concentration
# Protocol: as §1
# [20] = test system: Staphylococcus aureus; conditions: read-out: Minimal Inhibitory Concentration
# Protocol: as §1
# [21] = test system: Peptococcus asacrolytis; conditions: strain ATCC 29743; Mueller-Hinton agar; read-out: Minimal Inhibitory Concentration
# Protocol: as §1
# [22] = test system: Streptococcus pneumoniae; conditions: read-out: Minimal Inhibitory Concentration
# Protocol: as §1
# [23] = test system: Alcaligenes ssp.; conditions: strain ISG 86-34, Mueller-Hinton agar, read-out: Minimal Inhibitory Concentration
# Protocol: as §1
structure (smiles),measurement,setting,value
COc1cc2oc3c(c(=O)c2cc1OC)C(=O)c1c(ccc2cc4c(c(O)c12)C(=O)N1C(C)(C4)OC(=O)C1(C)COC(=O)CC(C)C)C3=O (stereo not drawn) [LL-E19085α],MIC,[1],≤ 0.06 µg/mL
same,MIC,[2],> 128 µg/mL
same,MIC,"[3]; strain CMC 83-72, Mueller-Hinton agar",≤ 0.06 µg/mL
same,MIC,"[3]; strain IO 83-28, Mueller-Hinton agar",≤ 0.06 µg/mL
same,MIC,"[3]; strain IO 83-40, Mueller-Hinton agar",0.12 µg/mL
same,MIC,"[3]; strain VGH 84-65, Mueller-Hinton agar",≤ 0.06 µg/mL
same,MIC,"[3]; strain VGH 84-68, Mueller-Hinton agar",≤ 0.06 µg/mL
same,MIC,[4],> 128 µg/mL
same,MIC,[5],16 µg/mL
same,MIC,"[6]; ATCC29741, strain ATCC 29741, Mueller-Hinton agar",4 µg/mL
same,MIC,"[6]; ATCC29742, strain ATCC 29742, Mueller-Hinton agar",4 µg/mL
same,MIC,[7],≤ 0.06 µg/mL
same,MIC,"[8]; Streptococcus, strain C 203, read-out: Minimal Inhibitory Concentration",≤ 0.06 µg/mL
same,Minimal Inhibitory Concentration,[8]; strain VGH 84-60,≤ 0.06 µg/mL
same,Minimal Inhibitory Concentration,[8]; strain VGH 84-61,≤ 0.06 µg/mL
same,Minimal Inhibitory Concentration,[8]; strain VGH 84-62,≤ 0.06 µg/mL
same,MIC,[9],> 128 µg/mL
same,MIC,[10],≤ 0.06 µg/mL
same,MIC,[11],> 128 µg/mL
same,MIC,[12],> 128 µg/mL
same,MIC,[13],≤ 0.06 µg/mL
same,MIC,"[14]; ATCC25922, strain ATCC 25922, Mueller-Hinton agar",> 128 µg/mL
same,MIC,"[14]; strain No. 311, Mueller-Hinton agar",> 128 µg/mL
same,MIC,"[15]; ATCC14956, strain ATCC 14956",≤ 0.06 µg/mL
same,MIC,"[15]; ATCC29328, strain ATCC 29328",≤ 0.06 µg/mL
same,MIC,[16],> 128 µg/mL
same,MIC,[17],> 128 µg/mL
same,MIC,[18],≤ 0.06 µg/mL
same,MIC,[19],> 128 µg/mL
same,MIC,"[20]; ATCC25923, strain ATCC 25923, Mueller-Hinton agar",0.12 µg/mL
same,MIC,"[20]; ATCC29213, strain ATCC 29213, Mueller-Hinton agar",≤ 0.06 µg/mL
same,MIC,"[20]; strain CMC 83-127, Mueller-Hinton agar",≤ 0.06 µg/mL
same,MIC,"[20]; strain CMC 83-131, Mueller-Hinton agar",≤ 0.06 µg/mL
same,MIC,"[20]; strain CMC 83-132, Mueller-Hinton agar",≤ 0.06 µg/mL
same,MIC,"[20]; strain SSC 82-57, Mueller-Hinton agar",≤ 0.06 µg/mL
same,MIC,"[20]; strain Smith, Mueller-Hinton agar",0.12 µg/mL
same,MIC,"[20]; strain VGH 84-45, Mueller-Hinton agar",≤ 0.06 µg/mL
same,MIC,[21],≤ 0.06 µg/mL
same,MIC,"[22]; strain K 84-21, Mueller-Hinton agar",≤ 0.06 µg/mL
same,MIC,"[22]; strain SV-1, Mueller-Hinton agar",≤ 0.06 µg/mL
same,MIC,[23],> 128 µg/mL
